System: post-synaptic Dopamine (D.A.) receptors
Experiment: Inhibition of apomorphine induced climbing in the mouse
Type: in vivo
Conditions: dose for 50% inhibition of apomorphine (1 mg/kg s.c.) induced climbing, male CD1 mice, ½ hour post dosing po; 30 min

Molecule	ED50 [mg/kg]
4-Chloro- and 6-Chloro-5-amino-2-(3β-N-(9-(4^1-methylbenzyl) -9-azabicyclo[3.3.1]nonyl)]phthalimidine [Compound E8]	0.5
Cc1ccc(CN2[C@@H]3CCC[C@H]2C[C@H](N2Cc4ccccc4C2=O)C3)cc1 [Compound E1]	1.1
Cc1ccc(CN2[C@@H]3CCC[C@H]2C[C@H](N2Cc4cc(Cl)ccc4C2=O)C3)cc1 [Compound E2]	0.5
O=C1c2ccc(Cl)cc2CN1[C@@H]1C[C@H]2CCC[C@@H](C1)N2Cc1ccc(F)cc1 [Compound E3]	1.2
Nc1ccc2c(c1)CN([C@@H]1C[C@H]3CCC[C@@H](C1)N3Cc1ccc(F)cc1)C2=O [Compound E5, 5-Amino-2-(3β-N-(9-(4^1-fluorobenzyl)-9-azabicyclo[3.3.1]nonyl)]phthalimidine]	0.6
Cc1ccc(CN2[C@@H]3CCC[C@H]2C[C@H](N2Cc4cc(N)ccc4C2=O)C3)cc1 [Compound E6, 5-Amino-2-[3β-N-(9-(4^1-methylbenzyl)-9-azabicyclo[3.3.1]nonyl)]phthalimidine]	0.3

Same assay, conditions: subcutaneous dosing; dose for 50% inhibition of apomorphine (1 mg/kg s.c.) induced climbing, male CD1 mice; 30 min

Molecule	ED50
CN(C)S(=O)(=O)c1ccc2c(c1)C(=O)N([C@@H]1C[C@H]3CC[C@@H](C1)N3Cc1ccccc1)C2 [Compound E9, 6-Dimethylaminosulphonyl-2-N-[3β(8-benzyl-8-azabicyclo [3.2.1]octyl)]phthalimidine]	3.0 (subcutaneous dosing) mg/kg

Source: patent EP0093488A2, “Nortropyl benzopyrrolinone compounds, process for their preparation and pharmaceutical compositions containing them” (BEECHAM GROUP PLC, priority 1982, dated 1983)
